# “Also recorded” adds a separate entry of the source. Where two headings read alike, the source gives them in different places.
# Key:
# [1] = system: HEP‐G2 human hepatoma cell line
# [2] = LogD7.4 estimation by HPLC-based method; assay type: physicochemical; settings: for logD7.4 (single determination): calculated from retention time with one calibration function (A–F)
# Procedure: The logarithm of the capacity factors of the reference substances was then plotted against the corresponding logP values taken from the mentioned guideline to obtain a calibration function. For non‐ionizable compounds like the reference substances used for calibration, logP values can be considered equivalent to the logD 7.4 values. To obtain a reference mixture, 2 mg of the reference substances were each dissolved in 1 mL of methanol, and 50 μL aliquots of each reference solution were subsequently combined. The reference mixture was measured before and after the substances to be tested, and the mean retention time from both measurements was used to calculate the calibration function. The calibration function was then used to determine the logD 7.4 values from the corresponding retention times for each substance to be tested. The compounds of interest were injected as a solution in methanol (2 mg/mL), and the retention time was determined as the mean value from two measurements.
# [3] = Cyclic voltammetry, anodic peak potential (oxidizability); assay type: physicochemical; settings: 0.1 M Tris‐HCl buffer pH 7.4, −0.5 to 1.0 V, sweep rate 0.1 V/s, –[b] = no oxidation observed in the specified potential range
# [4] = molecular target: KV7.2/3 channel (Homo sapiens, UniProt O43525+O43526); test: KV7.2/3 channel opening activity, thallium-flux FLIPR Potassium Assay in HEK-293 cells overexpressing KV7.2/3; set-up: Emax: dose or concentration left out as unconfirmed; settings: for Emax: HEK293E, read-out: Efficacy; for EC50 (required concentration to reach half‐maximal KV7.2/3 channel opening activity) / KV7.2/3 opening activity (in words): HEK‐293 cells overexpressing KV7.2/3; for EC50 (required concentration to reach half‐maximal KV7.2/3 channel opening activity): mean ± SD, at least three determinations; for EC50 (required concentration to reach half‐maximal KV7.2/3 channel opening activity) / Efficacy: –[e] = inactive up to a concentration of 20 μM; for Efficacy: maximal fluorescence signal relative to flupirtine (100 %), HEK‐293
# Chain of KV7.2/3 channel (O43525 whole entry): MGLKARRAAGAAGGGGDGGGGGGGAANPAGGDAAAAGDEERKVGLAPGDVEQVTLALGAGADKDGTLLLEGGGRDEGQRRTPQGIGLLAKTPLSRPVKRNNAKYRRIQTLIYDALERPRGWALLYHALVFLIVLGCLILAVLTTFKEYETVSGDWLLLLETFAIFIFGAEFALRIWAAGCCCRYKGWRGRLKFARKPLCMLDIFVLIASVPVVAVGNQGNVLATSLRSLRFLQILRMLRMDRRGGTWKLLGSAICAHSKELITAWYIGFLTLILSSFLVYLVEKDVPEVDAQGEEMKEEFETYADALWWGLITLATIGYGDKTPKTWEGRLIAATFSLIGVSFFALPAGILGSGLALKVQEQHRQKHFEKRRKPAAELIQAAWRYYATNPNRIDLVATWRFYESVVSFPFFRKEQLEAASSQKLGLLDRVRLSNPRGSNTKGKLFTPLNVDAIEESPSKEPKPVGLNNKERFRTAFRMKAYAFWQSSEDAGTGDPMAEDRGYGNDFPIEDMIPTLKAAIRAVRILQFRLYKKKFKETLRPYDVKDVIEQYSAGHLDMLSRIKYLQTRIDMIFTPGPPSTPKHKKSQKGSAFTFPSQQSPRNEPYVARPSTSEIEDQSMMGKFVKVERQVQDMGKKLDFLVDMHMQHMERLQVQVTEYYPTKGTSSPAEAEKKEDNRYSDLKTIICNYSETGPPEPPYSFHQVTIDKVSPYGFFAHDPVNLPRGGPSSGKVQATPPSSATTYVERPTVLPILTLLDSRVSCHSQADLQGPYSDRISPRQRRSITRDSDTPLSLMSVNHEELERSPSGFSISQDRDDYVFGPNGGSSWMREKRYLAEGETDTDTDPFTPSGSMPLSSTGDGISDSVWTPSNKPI
# Chain of KV7.2/3 channel (O43526 whole entry): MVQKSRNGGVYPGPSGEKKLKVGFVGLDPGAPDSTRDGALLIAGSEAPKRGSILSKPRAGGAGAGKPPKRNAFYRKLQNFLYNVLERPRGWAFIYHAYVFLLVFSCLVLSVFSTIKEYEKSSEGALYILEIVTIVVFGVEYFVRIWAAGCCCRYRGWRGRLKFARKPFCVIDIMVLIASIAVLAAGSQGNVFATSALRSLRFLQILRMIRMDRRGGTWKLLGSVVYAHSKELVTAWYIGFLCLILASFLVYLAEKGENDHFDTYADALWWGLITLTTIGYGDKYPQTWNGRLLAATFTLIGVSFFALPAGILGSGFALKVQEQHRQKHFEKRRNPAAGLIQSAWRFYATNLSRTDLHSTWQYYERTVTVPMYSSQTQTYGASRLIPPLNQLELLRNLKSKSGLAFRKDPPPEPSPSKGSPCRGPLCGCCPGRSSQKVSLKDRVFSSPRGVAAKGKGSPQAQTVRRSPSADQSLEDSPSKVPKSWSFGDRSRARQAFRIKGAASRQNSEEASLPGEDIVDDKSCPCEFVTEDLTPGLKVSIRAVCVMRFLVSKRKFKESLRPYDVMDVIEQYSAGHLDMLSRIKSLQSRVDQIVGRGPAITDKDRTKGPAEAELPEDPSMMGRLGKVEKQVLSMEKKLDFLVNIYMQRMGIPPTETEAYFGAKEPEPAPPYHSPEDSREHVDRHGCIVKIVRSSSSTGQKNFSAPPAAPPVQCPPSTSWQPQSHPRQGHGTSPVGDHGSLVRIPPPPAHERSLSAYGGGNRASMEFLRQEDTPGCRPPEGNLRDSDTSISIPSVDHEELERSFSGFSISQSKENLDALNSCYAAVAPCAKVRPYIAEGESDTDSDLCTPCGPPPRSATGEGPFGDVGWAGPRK
# [5] = system: TAMH mouse liver cell line
# [6] = pH 7.4, calculated from retention time with one calibration function (A–F), Table S7, read-out: logD7.4 (single determination)
# [7] = pH 7.4, estimated by HPLC-based method, pH 7.4, read-out: LogD 7.4
# [8] = KV7.2/3 opening, ratio of EC50 values
# [9] = HEP‐G2, MTT assay, 24 h exposure
Structure (SMILES),"LD25 (concentration to reduce cell viability by 25 %) ([1]; human, 24 h)","LD50 (concentration to reduce cell viability by 50 %) ([1]; human, 24 h)",logD7.4 (single determination) ([2]; Table S7),"chromatographic logD [2, 6]","chromatographic logD [2, 7]",Ep.a. (anodic peak potential) [3],EC50 [4],Emax [4],"LD25 (concentration to reduce cell viability by 25 %) ([5]; mouse, 24 h)","LD50 (concentration to reduce cell viability by 50 %) ([5]; mouse, 24 h)",KV7.2/3 opening activity (in words) [4],further results
"Cc1nc(CNc2ccc(F)cc2)ccc1NC(=O)OCC(C)C [compound 27, Isobutyl (6‐{[(4‐fluorophenyl)amino]methyl}‐2‐methylpyridin‐3‐yl)carbamate]",136 ± 38 µM,>250 µM,3.408,3.42,3.4,648 mV,4120 ± 3940 nM,94 ± 15%,76 ± 15 µM,>250 µM,,
"CCOC(=O)Nc1ccc(C#Cc2ccccc2)nc1N [compound 21, Ethyl [2‐amino‐6‐(phenylethynyl)pyridin‐3‐yl]carbamate]",>125 µM,>125 µM,2.983,2.99,3,553 mV,> 20000 nM,,63 ± 12 µM,>125 µM,,EC50 (required concentration to reach half‐maximal KV7.2/3 channel opening activity) [4]: –^[e]; Efficacy [4]: –^[e]
"Cc1cc(CNc2ccc(F)cc2)cnc1NC(=O)CC(C)(C)C [43 b, N ‐(5‐{[(4‐Fluorophenyl)amino]methyl}‐3‐methylpyridin‐2‐yl)‐3,3‐dimethylbutanamide]",66 ± 27 µM,>125 µM,3.039,3.03,3,663 mV,677 ± 419 nM,153 ± 12%,>125 µM,>125 µM,submicromolar activity,"fold increase in potency compared to 43 a [4, 8]: 7.2 fold"
"CCCC(=O)Nc1ncc(CNc2ccc(F)cc2)cc1C1CC1 [43 c, N ‐(3‐Cyclopropyl‐5‐{[(4‐fluorophenyl)amino]methyl}pyridin‐2‐yl)butyramide]",55 ± 17 µM,>125 µM,2.772,2.77,2.8,678 mV,2020 ± 1200 nM,138 ± 20%,76 ± 52 µM,>125 µM,,"fold increase in potency compared to 43 a [4, 8]: 2.4 fold; increase in efficiency compared to 43 a ([4]; difference of efficacy values): 49%"
"CCOC(=O)Nc1ccc(CCc2ccc(F)cc2)nc1N [compound 7, Ethyl [2‐amino‐6‐(4‐fluorophenethyl)pyridin‐3‐yl]carbamate]",27 ± 16 µM,>63 µM,2.983,2.95,3,628 mV,> 10000 nM,,25 ± 7 µM,>63 µM,clearly less active than flupirtine,
"CCCC(=O)Nc1ccc(CNc2ccc(F)cc2)cc1C(F)(F)F.Cl [35 d, N ‐(4‐{[(4‐Fluorophenyl)amino]methyl}‐2‐(trifluoromethyl)phenyl)butyramide hydrochloride]",75 ± 17 µM,>125 µM,2.991,3,3,663 mV,362 ± 93 nM,156 ± 14%,>125 µM,>125 µM,,
"CCCC(=O)Nc1ccc(CNc2ccc(F)cc2)cc1C [35 b, N ‐(4‐{[(4‐Fluorophenyl)amino]methyl}‐2‐methylphenyl)butyramide]",88 ± 9 µM,>125 µM,2.870,2.88,2.9,618 mV,675 ± 276 nM,176 ± 14%,>125 µM,>125 µM,,
"CCOC(=O)Nc1ccc(NCc2ccc(F)cc2)cc1N [Ret, retigabine]",,,,,,260 mV,249 ± 52 nM,119 ± 7%,,,,"LD25 (concentration to reduce cell viability by 25 %) [1, 9]: 269 ± 166 µM; LD50 (concentration to reduce cell viability by 50 %) [1, 9]: >400 µM; LD50 (concentration to reduce cell viability by 50 %) ([1]; HEP‐G2, MTT assay, 24 h exposure, listed as retigabine): above 400 μM; fold increase in potency compared to flupirtine [4, 8]: 7 fold; LD25 (concentration to reduce cell viability by 25 %) ([5]; TAMH, MTT assay, 24 h exposure): >400 µM; LD50 (concentration to reduce cell viability by 50 %) ([5]; TAMH, MTT assay, 24 h exposure): >400 µM; LD50 (concentration to reduce cell viability by 50 %) ([5]; TAMH, MTT assay, 24 h exposure, listed as retigabine): above 400 μM"
"Cc1cc(CNc2ccc(F)cc2)ccc1NC(=O)c1ccccc1CO [compound 48, N ‐(4‐{[(4‐Fluorophenyl)amino]methyl}‐2‐methylphenyl)‐2‐(hydroxymethyl)benzamide]",80 ± 7 µM,84 ± 6 µM,2.899,2.93,2.9,no anodic peak potential could be determined; also recorded: –^[b],,,70 ± 10 µM,>125 µM,inactive,EC50 (required concentration to reach half‐maximal KV7.2/3 channel opening activity) [4]: –^[e]; Efficacy [4]: –^[e]
"CCCC(=O)Nc1ncc(CNc2ccc(F)cc2)cc1Br [42 a, N ‐(3‐Bromo‐5‐{[(4‐fluorophenyl)amino]methyl}pyridin‐2‐yl)butyramide]",>63 µM,>63 µM,2.714,2.71,2.7,668 mV,5450 ± 1700 nM,163 ± 23%,>63 µM,>63 µM,,
"CCCC(=O)Nc1ncc(CNc2ccc(F)cc2)cc1C [43 a, N ‐(5‐{[(4‐Fluorophenyl)amino]methyl}‐3‐methylpyridin‐2‐yl)butyramide]",46 ± 24 µM,>125 µM,2.341,2.33,2.3,678 mV,4840 ± 2910 nM,89 ± 32%,110 ± 54 µM,>125 µM,,
"CCCC(=O)Nc1c(C)cc(CNc2ccc(F)cc2)cc1C [35 a, N ‐(4‐{[(4‐Fluorophenyl)amino]methyl}‐2,6‐dimethylphenyl)butyramide]",,>125 µM,3.023,3.04,3,633 mV,143 ± 20 nM,143 ± 7%,,>125 µM,submicromolar activity,"fold increase in potency compared to 35 b [4, 8]: 4.7 fold"
"CCCC(=O)Nc1ccc(CNc2ccc(F)cc2)cc1F [35 c, N ‐(2‐Fluoro‐4‐{[(4‐fluorophenyl)amino]methyl}phenyl)butyramide]",>63 µM,>63 µM,2.980,2.96,3,643 mV,1510 ± 364 nM,167 ± 16%,>63 µM,>63 µM,,
"Cc1cc(CNc2ccc(F)cc2)ccc1NC(=O)CCn1cccn1 [compound 53, N ‐(4‐{[(4‐Fluorophenyl)amino]methyl}‐2‐methylphenyl)‐3‐(1H ‐pyrazol‐1‐yl)propanamide]",>63 µM,>63 µM,2.924,2.93,2.9,no anodic peak potential could be determined; also recorded: –^[b],2360 ± 543 nM,144 ± 42%,>63 µM,>63 µM,fair KV7.2/3 opening activity,"fold decrease in potency compared to butanoylamino sidechain (35 a) [4, 8]: 3.5 fold"
